Data published in patent publication US20240317689A1, “POTASSIUM CHANNEL MODULATOR, COMPOSITION AND APPLICATION” (NEUSHEN THERAPEUTICS (SHANGHAI) CO., LTD, priority 2021, published 2024).

Assays:
[1] = biological target: T1, KCNQ2/3 potassium ion channel (Homo sapiens, UniProt O43525+O43526); assay: KCNQ2/3 potassium ion channel activation assay (whole-cell patch clamp, hKCNQ-CHO cells); format: cell-based; conditions: read-out: Enhancment % (current enhancement multiple); for activation at 0.05 µM: test concentration 0.05 μM; for activation at 3 µM: test concentration 3 μM
T1 construct: expressed in transfected cells; host or cells: CHO cells (hKCNQ-CHO)
Experimental: Example 64: KCNQ2/3 Potassium Ion Channel Activation Assay
(§1) hKCNQ-CHO cells were cultured at 37° C. in a humidified environment of 5% CO2.
• 2.1. Extracellular fluid (mM): NaCl 145, KCl 4, CaCl2 2, MgCl2 1, Glucose 10, HEPES 10. The pH value of the extracellular fluid was adjusted to 7.4 with NaOH, and the osmotic pressure was adjusted to about 295 mOsm. • 2.2. Intracellular fluid (mM (mmol/L)): KOH 31.25, KCl 120, EGTA 10, MgCl2 1.75, CaCl2 5.374, HEPES 10, Na-ATP 4. The pH value of the intracellular fluid was adjusted to 7.4 with HCl, and the osmotic pressure was adjusted to about 285 mOsm. • 2.3. The extracellular fluid should be prepared once a week, and the intracellular fluid should be stored at −20° C. after preparation.
(§2) The model positive reference compound Retigabine (RTG) was dissolved with 100% DMSO and configured as a 10 mM working solution. The test compounds were dissolved with 100% DMSO and configured as a 10 mM working solution. The final concentration of DMSO in the test solution should be less than 0.3%.
(§3) Whole-cell patch clamp was performed at room temperature. The electrical signals recorded with the EPC 10 USB amplifier (HEKA Elektronik, Germany) were filtered by a 3 kHz low-pass filter, and finally recorded in PatchMaster 2×90.5 software (HEKA Elektronik, Germany). At this step, the quality control standard was that the cell high-resistance sealing was greater than 500 MOhms, and the detection current was greater than 0.4 nA.
(§4) The recording electrodes were pulled out and polished with a vertical puller (NARISHIGE PC-10, Japan) using a borosilicate glass capillary (GC150tF-10, Harvard Apparatus Co., UK). At this step, the quality control standard was that the electrode resistance was between 2 MΩ and 5 MΩ.
(§5) During the recording process of the whole-cell patch clamp, a continuous perfusion system (BT100-2J, LongerPump, China) was used to continuously perfuse the extracellular fluid. The perfusion system was installed on the stage of an upright microscope (FN-S2N, Nikon, Japan), and the perfusion head was manually positioned under the microscope.
The voltage command for detecting the amplitude of hKCNQ current was as follows: the cell stepped from the clamping potential of −80 mV to −30 mV, and held for 1500 ms; and then the clamping voltage was lowered to −120 my and held for 500 ms; finally, the voltage returned to the clamping potential of −80 mV. The detection voltage command was repeated every 15,000 milliseconds, and the command was continuously executed during the compound test. The quality control standard for compound action stability was the current amplitude under 5 consecutive voltage commands, and the coefficient of variation of the current amplitude was <5%.
Data analysis was performed using PatchMaster 2×90.5 software (HEKA Elektronik, Germany) and Excel 2013 (Microsoft, USA) software. For each cell's patch clamp recording, the amplitude of the hKCNQ channel current (Itest) corresponding to the test compound concentration should be obtained. The enhanced channel current was obtained by subtracting the cell's original channel current (Icontrol) from Itest and dividing by Icontrol to obtain the current enhancement multiple. That is, the current enhancement multiple (Enhancment %)=(Itest −Icontrol)/Icontrol[…].

KCNQ2/3 = biological target: T2, KCNQ2/3 (Homo sapiens, UniProt O43525+O43526); assay: Half-maximal activation voltage left shift assay (whole-cell patch clamp, hKCNQ-CHO cells); format: cell-based
T2 construct: expressed in transfected cells; host or cells: CHO cells (hKCNQ-CHO)
Experimental: Example 65: Half-Maximal Activation Voltage Left Shift Assay
as §1
• a) Extracellular fluid (mM): NaCl 145, KCl 4, CaCl2 2, MgCl2 1, Glucose 10, HEPES 10. The pH value of the extracellular fluid was adjusted to 7.4 with NaOH, and the osmotic pressure was adjusted to about 295 mOsm. • b) Intracellular fluid (mM): KOH 31.25, KCl 120, EGTA 10, MgCl2 1.75, CaCl2 5.374, HEPES 10, Na-ATP 4. The pH value of the intracellular fluid was adjusted to 7.4 with HCl, and the osmotic pressure was adjusted to about 285 mOsm. • c) The extracellular fluid should be prepared once a week, and the intracellular fluid should be aliquoted and stored at −20° C. after preparation.
as §2, §3, §4, §5
The voltage command for detecting the amplitude of hKCNQ current was as follows: the cell was clamped from a potential of −80 mV, stepped to −120 mV, and then clamped continuously at increasing voltages of 10 mV per sweep until +60 mV, held for 1500 ms; and then the clamping voltage was lowered to −120 my and held for 500 ms; finally, the voltage returned to the clamping potential of −80 mV. The detection voltage command was repeated every 15,000 milliseconds, and the command was continuously executed during the compound test. The half-maximal voltage of the cell's hKCNQ was obtained by nonlinear fitting of the current amplitude at different clamping potentials (−120 mV to +60 mV).
Data analysis was performed using PatchMaster 2×90.5 software (HEKA Elektronik, Germany) and Excel 2013 (Microsoft, USA) software. For each cell's patch clamp recording, the half-maximal voltage (V½-test) of hKCNQ corresponding to the test compound concentration should be obtained. The left-shifted half-maximal voltage value ΔV½ (V1/2 Shift (mV)) was obtained by subtracting the half-maximal voltage of hKCNQ before compound action (V½-control) from V½-test.

[2] = system: MES-induced epilepsy in mice; assay: MES mouse epilepsy model; format: in vivo; conditions: 5 mpk, electrical stimulation 30 minutes after administration
Experimental: Example 67: MES Mouse Epilepsy Model
• 1. The mice (10 mice per group) were transferred to the operating room to adapt to the environment 30 minutes before the experiment. • 2. The mice were administered the test compounds or positive drug (Valproate) at a specific time point. 30 minutes after the administration of Valproate or 30 minutes after the administration of the test compounds, electrical stimulation was given with ear electrodes. The stimulation parameters were a square wave with a total duration of 0.8 seconds, a frequency of 50 Hz, and an amplitude of 50 mA with an interval of 10 msec. • 3. The number and duration of hind limb tonic extension of the animal within 1 minute after the completion of the electrical stimulation was recorded, and the possible death and time of death were also recorded. • 4. After administration, the possible side effects induced by the drug were observed and recorded, and the side effects are divided into four levels: • None: Normal • Mild sedation • Moderate sedation • Severe sedation

| activation at 3 µM [1] [%] | SMILES | also measured |
| --- | --- | --- |
| > 100 | Cc1cc(N2CCCc3cc(O[C@H](C)C(F)(F)F)ccc3C2)cc(C)c1NC(=O)CC(C)(C)C [Compound 032, (R)—N-(2,6-dimethyl-4-(7-((1,1,1-trifluoropropan-2-yl)oxy)-1,3,4,5-tetrahydro-2H-benzo[c]azepin-2-yl)phenyl)-3,3-dimethylbutanamide] | activation at 0.05 µM [1]: 50 to 100%; Protection rate for tonic extension [2]: 100%; V1/2 Shift (mV) (KCNQ2/3; test concentration 50 nM): −17.59 mV |
| > 100 | Cc1cc(N2CCCc3cc(F)c(F)cc3C2)cc(C)c1NC(=O)CC(C)(C)C [Compound 047, N-(4-(7,8-difluoro-1,3,4,5-tetrahydro-2H-benzo[c]azepin-2-yl)-2,6-dimethylphenyl)-3,3-dimethylbutanamide] |  |
| > 100 | Cc1cc(N2CCCc3cc(OC(C(F)(F)F)C(F)(F)F)ccc3C2)cc(C)c1NC(=O)CC(C)(C)C [Compound 055, N-(4-(7-((1,1,1,3,3,3-hexafluoropropan-2-yl)oxy)-1,3,4,5-tetrahydro-2H-benzo[c]azepin-2-yl)-2,6-dimethylphenyl)-3,3-dimethylbutanamide] |  |
| > 100 | Cc1cc(N2CC=Cc3cc(F)c(F)cc3C2)cc(C)c1NC(=O)CC(C)(C)C [Compound 046, N-(4-(7,8-difluoro-1,3-dihydro-2H-benzo[c]azepin-2-yl)-2,6-dimethylphenyl)-3,3-dimethylbutanamide] |  |
| 50 to 100 | COc1ccc2c(c1)CCCN(c1cc(C)c(NC(=O)CC(C)(C)C)c(C)c1)C2 [Compound 001, N-(4-(7-methoxy-1,3,4,5-tetrahydro-2H-benzo[c]azepin-2-yl)-2,6-dimethylphenyl)-3,3-dimethylbutanamide] | activation at 0.05 µM [1]: 50 to 100% |
| > 100 | Cc1cc(N2CCSc3cc(F)ccc3C2)cc(C)c1NC(=O)CC(C)(C)C [Compound 025, N-(4-(8-fluoro-2,3-dihydrobenzo[f][1,4]thiazepin-4(5H)-yl)-2,6-dimethylphenyl)-3,3-dimethylbutanamide] |  |
| > 100 | Cc1cc(N2CCCc3cc(OCC(F)(F)C(F)F)ccc3C2)cc(C)c1NC(=O)CC(C)(C)C [Compound 057, N-(2,6-dimethyl-4-(7-(2,2,3,3-tetrafluoropropoxy)-1,3,4,5-tetrahydro-2H-benzo[c]azepin-2-yl)phenyl)-3,3-dimethylbutanamide] |  |
| > 100 | Cc1cc(N2CCCc3cc(OCC(C)C(F)(F)F)ccc3C2)cc(C)c1NC(=O)CC(C)(C)C (stereo not shown) [Compound 053, N-(2,6-dimethyl-4-(7-(3,3,3-trifluoro-2-methylpropoxy)-1,3,4,5-tetrahydro-2H-benzo[c]azepin-2-yl)phenyl)-3,3-dimethylbutanamide] |  |
| > 100 | Cc1cc(N2CCCc3cc(OC4CC4)c(F)cc3C2)cc(C)c1NC(=O)CC(C)(C)C [Compound 042, N-(4-(7-cyclopropoxy-8-fluoro-1,3,4,5-tetrahydro-2H-benzo[c]azepin-2-yl)-2,6-dimethylphenyl)-3,3-dimethylbutanamide] |  |
| 50 to 100 | CSc1ccc2c(c1)CCCN(c1cc(C)c(NC(=O)CC(C)(C)C)c(C)c1)C2 [Compound 014, N-(2,6-dimethyl-4-(7-(methylthio)-1,3,4,5-tetrahydro-2H-benzo[c]azepin-2-yl)phenyl)-3,3-dimethylbutanamide] | activation at 0.05 µM [1]: < 50% |
| > 100 | Cc1cc(N2CCCc3cc(O[C@@H](C)C(F)(F)F)c(F)cc3C2)cc(C)c1NC(=O)CC(C)(C)C [Compound 036, (S)—N-(4-(8-fluoro-7-((1,1,1-trifluoropropan-2-yl)oxy)-1,3,4,5-tetrahydro-2H-benzo[c]azepin-2-yl)-2,6-dimethylphenyl)-3,3-dimethylbutanamide] |  |
| > 100 | Cc1cc(N2CCS(=O)(=O)c3cc(F)ccc3C2)cc(C)c1NC(=O)CC(C)(C)C [Compound 026, N-(4-(8-fluoro-1,1-dioxido-2,3-dihydrobenzo[f][1,4]thiazepin-4(5H)-yl)-2,6-dimethylphenyl)-3,3-dimethylbutanamide] |  |

| SMILES | activation at 3 µM [1] [%] | also measured |
| --- | --- | --- |
| CCC(C)Oc1ccc2c(c1)CCCN(c1cc(C)c(NC(=O)CC(C)(C)C)c(C)c1)C2 (stereo not shown) [Compound 004, N-(4-(7-(sec-butoxy)-1,3,4,5-tetrahydro-2H-benzo[c]azepin-2-yl)-2,6-dimethylphenyl)-3,3-dimethylbutanamide] | > 100 | activation at 0.05 µM [1]: < 50%; V1/2 Shift (mV) (KCNQ2/3; test concentration 50 nM): −11.76 mV; V1/2 Shift (mV) (KCNQ2/3; test concentration 300 nM): −23.56 mV |
| Cc1cc(N2CCCc3cc(OC4CCC4)c(F)cc3C2)cc(C)c1NC(=O)CC(C)(C)C [Compound 043, N-(4-(7-cyclobutoxy-8-fluoro-1,3,4,5-tetrahydro-2H-benzo[c]azepin-2-yl)-2,6-dimethylphenyl)-3,3-dimethylbutanamide] | > 100 |  |
| Cc1cc(N2CCCc3cc(OCC(F)(F)CC(F)(F)F)ccc3C2)cc(C)c1NC(=O)CC(C)(C)C [Compound 062, N-(2,6-dimethyl-4-(7-(2,2,4,4,4-pentafluorobutoxy)-1,3,4,5-tetrahydro-2H-benzo[c]azepin-2-yl)phenyl)-3,3-dimethylbutanamide] | > 100 |  |
| Cc1cc(N2CCCc3cc(OCCCC(F)(F)F)ccc3C2)cc(C)c1NC(=O)CC(C)(C)C [Compound 060, N-(2,6-dimethyl-4-(7-(4,4,4-trifluorobutoxy)-1,3,4,5-tetrahydro-2H-benzo[c]azepin-2-yl)phenyl)-3,3-dimethylbutanamide] | > 100 |  |
| Cc1cc(N2CCCc3cc(OCCCCF)ccc3C2)cc(C)c1NC(=O)CC(C)(C)C [Compound 063, N-(4-(7-(4-fluorobutoxy)-1,3,4,5-tetrahydro-2H-benzo[c]azepin-2-yl)-2,6-dimethylphenyl)-3,3-dimethylbutanamide] | > 100 |  |
